# Calls of active or inactive are those of the source. No cut-off for these calls is given here.
# Molecular target: T1, Interleukin-8 receptors, CXCR1/CXCR2 (Homo sapiens) (UniProt P25025+P25024)
# Assay: Inhibition of CXCL8-induced chemotaxis of human polymorphonuclear cells at 10e-8 M: not active
# Assay type: functional
row,SMILES,inhibition
1,CC(C(=O)O)c1ccc(Cc2ccccc2)cc1 (centres undefined),inactive
2,CC(C)Cc1ccc([C@@H](C)C(=O)NS(=O)(=O)Cc2ccc(Cl)cc2)cc1,inactive
3,CC(C)Cc1ccc([C@@H](C)C(=O)N[C@H](CS)C(=O)O)cc1,inactive
4,CC(C)Cc1ccc([C@@H](C)C(=O)NC2CCN(C)C2)cc1 (some centres undefined),inactive
5,CC(C(=O)O)c1ccc(C(C)(C)C)cc1 (centres undefined),inactive
6,CC(C)Cc1ccc([C@@H](C)C(=O)NCCCN)cc1,inactive
7,"CC(C)Cc1ccc([C@@H](C)C(=O)NC(C)C(=O)O)cc1 (single isomer, unassigned)",inactive
8,CC(C)Cc1ccc([C@@H](C)C(=O)N2CCCCC2)cc1,inactive
9,CC(C)Cc1ccc([C@@H](C)C(=O)NS(=O)(=O)c2ccccc2)cc1,inactive
10,COC(=O)[C@@H](C)NC(=O)[C@H](C)c1ccc(CC(C)C)cc1,inactive
11,C/C=C/c1cccc(C(C)C(=O)O)c1 (centres undefined),inactive
12,CC(C)Cc1ccc([C@@H](C)C(=O)NCCCC(=O)O)cc1,inactive
13,CC(C(=O)O)c1ccc(-c2cccs2)cc1 (centres undefined),inactive
14,CC(C)Cc1ccc([C@@H](C)C(=O)NS(=O)(=O)CCCN)cc1,inactive
15,CC(C(=O)O)c1ccc(CC2CCCCC2)cc1 (centres undefined),inactive
16,CC(C(=O)O)c1ccc(-c2ccccc2)cc1 (centres undefined),inactive

row,SMILES,inhibition
1,CC(C)Cc1cccc(C(C)C(=O)O)c1 (centres undefined),inactive
2,CC(C)Cc1ccc([C@@H](C)C(=O)NS(=O)(=O)Cc2cccnc2)cc1,inactive
3,CC(C)Cc1ccc([C@@H](C)C(=O)NCCC[N+](C)(C)C)cc1,inactive
4,CC(C)Cc1ccc([C@@H](C)C(=O)NCCCCCO)cc1,inactive
5,CC(C)Cc1ccc([C@@H](C)C(=O)NCCC(=O)O)cc1,inactive
6,CC(C(=O)O)c1ccc(O)cc1 (centres undefined),inactive
7,CC(=O)c1cccc(C(C)C(=O)O)c1 (centres undefined),inactive
8,CC(C)Cc1ccc([C@@H](C)C(=O)NC2CCOCC2)cc1,inactive
9,CC(C)Cc1ccc([C@@H](C)C(=O)NS(=O)(=O)C(F)(F)F)cc1,inactive
10,COC(=O)CNC(=O)[C@H](C)c1ccc(CC(C)C)cc1,inactive
11,CC(C)Cc1ccc([C@@H](C)C(=O)N(C)C)cc1,inactive
12,CC(C)Cc1ccc([C@@H](C)C(=O)NS(=O)(=O)CCCN2C(=O)c3ccccc3C2=O)cc1,inactive
13,CC(C)Cc1ccc([C@@H](C)C(=O)NC2CCOC2)cc1 (some centres undefined),inactive
14,CCCCc1cccc(C(C)C(=O)O)c1 (centres undefined),inactive
15,CC(C(=O)O)c1cccc(C(=O)O)c1 (centres undefined),inactive
16,COC(=O)C(C)c1ccc(CC(C)C)cc1 (centres undefined),inactive

# Molecular target: T1, Interleukin-8 receptors, CXCR1/CXCR2 (Homo sapiens)
# Assay: Inhibition of CXCL8-induced chemotaxis of human polymorphonuclear cells at 10e-6 M: not active
# Assay type: functional
row,SMILES,inhibition
1,CC(C(=O)NS(C)(=O)=O)c1ccc2c(c1)[nH]c1ccc(Cl)cc12 (centres undefined),inactive

# Molecular target: T1, Interleukin-8 receptors, CXCR1/CXCR2 (Homo sapiens)
# Assay: Inhibition of interleukin-8 induced chemotaxis of human polymorphonuclear cells at 10 nM
row,SMILES,inhibition [%]
1,C[C@H](C(=O)NS(C)(=O)=O)c1ccc(-c2ccccc2)c(F)c1,19
2,CCNC(=O)[C@H](C)c1ccc(CC(C)C)cc1,26
3,CC(C)Cc1ccc([C@@H](C)C(=O)Nc2ccccc2)cc1,30
4,CC(C)Oc1ccc(C(C)C(=O)O)cc1 (centres undefined),38
5,CC(C)c1ccc(C(C)C(=O)O)cc1 (centres undefined),32
6,CNC(=O)[C@H](C)c1ccc(CC(C)C)cc1,40
7,C[C@@H](C(=O)NS(C)(=O)=O)c1ccc(-c2ccccc2)c(F)c1,30
8,CCS(=O)(=O)NC(=O)[C@H](C)c1ccc(CC(C)C)cc1,40
9,CC(C(=O)O)c1cccc(Cc2ccccc2)c1 (centres undefined),30
10,CCC(C)c1cccc(C(C)C(=O)O)c1 (centres undefined),50

# Molecular target: T2, Interleukin-8 receptors, CXCR1/CXCR2 (Homo sapiens, UniProt P25025+P25024)
# T2 sequence (P25025 whole entry): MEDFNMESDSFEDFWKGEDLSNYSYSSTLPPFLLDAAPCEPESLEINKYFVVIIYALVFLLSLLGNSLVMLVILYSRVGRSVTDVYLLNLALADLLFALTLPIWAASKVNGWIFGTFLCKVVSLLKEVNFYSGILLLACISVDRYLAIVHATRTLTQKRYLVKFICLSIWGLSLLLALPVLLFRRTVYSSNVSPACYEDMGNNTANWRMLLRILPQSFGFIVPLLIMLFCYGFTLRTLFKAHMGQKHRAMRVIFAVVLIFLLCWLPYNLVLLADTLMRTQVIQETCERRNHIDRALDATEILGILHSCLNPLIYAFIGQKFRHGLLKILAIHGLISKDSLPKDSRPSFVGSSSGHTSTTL
# T2 sequence (P25024 whole entry): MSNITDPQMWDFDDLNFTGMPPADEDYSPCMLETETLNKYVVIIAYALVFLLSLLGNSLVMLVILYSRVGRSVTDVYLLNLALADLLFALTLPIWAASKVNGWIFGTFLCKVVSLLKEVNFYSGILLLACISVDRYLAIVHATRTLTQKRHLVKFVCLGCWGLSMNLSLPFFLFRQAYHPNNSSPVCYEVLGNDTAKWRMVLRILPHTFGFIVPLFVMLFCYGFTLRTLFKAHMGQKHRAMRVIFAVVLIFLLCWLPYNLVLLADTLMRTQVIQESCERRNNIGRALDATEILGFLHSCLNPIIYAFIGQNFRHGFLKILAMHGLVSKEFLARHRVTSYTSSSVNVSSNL
# Assay: Inhibition of CXCL8-induced chemotaxis in human polymorphonuclear cells
# Assay type: functional
row,SMILES,IC50 [nM]
1,CONC(=O)[C@H](C)c1ccc(CC(C)C)cc1,1.8
